PubChem BioAssay (NCI)
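These data come from cells grown in 96-well plates and exposed to compound for 48 hours at five concentrations. TGI marks complete inhibition of growth.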

Columns and labels:
Assay in all cases: NCI-60 cell line screen, 48 h
M14 melanoma = tested on: M14 melanoma
MDA-N = tested on: MDA-N
SK-MEL-28 melanoma = tested on: SK-MEL-28 melanoma
MCF7 breast = tested on: MCF7 breast
ACHN renal = tested on: ACHN renal
IGROV1 ovarian = tested on: IGROV1 ovarian
SF-268 CNS = tested on: SF-268 CNS
OVCAR-4 ovarian = tested on: OVCAR-4 ovarian
MALME-3M melanoma = tested on: MALME-3M melanoma
EKVX NSCLC = tested on: EKVX NSCLC
NCI-H522 lung = tested on: NCI-H522 lung
SF-295 CNS = tested on: SF-295 CNS
SNB-19 CNS = tested on: SNB-19 CNS
NCI-H226 lung = tested on: NCI-H226 lung
HCT-116 colon = tested on: HCT-116 colon
PC-3 prostate = tested on: PC-3 prostate
HS 578T breast = tested on: HS 578T breast
NCI-H23 lung = tested on: NCI-H23 lung
CAKI-1 renal = tested on: CAKI-1 renal
HL-60(TB) leukemia = tested on: HL-60(TB) leukemia
NCI/ADR-RES ovarian = tested on: NCI/ADR-RES ovarian
HOP-92 NSCLC = tested on: HOP-92 NSCLC
SN12C renal = tested on: SN12C renal
TK-10 renal = tested on: TK-10 renal
DU-145 prostate = tested on: DU-145 prostate
HOP-62 NSCLC = tested on: HOP-62 NSCLC
A549 NSCLC = tested on: A549 NSCLC
BT-549 breast = tested on: BT-549 breast
SF-539 CNS = tested on: SF-539 CNS
OVCAR-8 ovarian = tested on: OVCAR-8 ovarian
COLO 205 colon = tested on: COLO 205 colon
HT29 colon = tested on: HT29 colon
UACC-257 melanoma = tested on: UACC-257 melanoma
SK-MEL-5 melanoma = tested on: SK-MEL-5 melanoma
SW-620 colon = tested on: SW-620 colon
MOLT-4 leukemia = tested on: MOLT-4 leukemia
SNB-75 CNS = tested on: SNB-75 CNS
OVCAR-3 ovarian = tested on: OVCAR-3 ovarian
786-0 renal = tested on: 786-0 renal
UO-31 renal = tested on: UO-31 renal
A498 renal = tested on: A498 renal
OVCAR-5 ovarian = tested on: OVCAR-5 ovarian
KM12 colon = tested on: KM12 colon
LOX IMVI melanoma = tested on: LOX IMVI melanoma
SK-OV-3 ovarian = tested on: SK-OV-3 ovarian
SK-MEL-2 melanoma = tested on: SK-MEL-2 melanoma
U251 CNS = tested on: U251 CNS
HCT-15 colon = tested on: HCT-15 colon
MDA-MB-435 = tested on: MDA-MB-435
CCRF-CEM leukemia = tested on: CCRF-CEM leukemia
RXF 393 renal = tested on: RXF 393 renal
NCI-H460 lung = tested on: NCI-H460 lung
UACC-62 melanoma = tested on: UACC-62 melanoma
T-47D breast = tested on: T-47D breast
K-562 leukemia = tested on: K-562 leukemia
RPMI-8226 leukemia = tested on: RPMI-8226 leukemia
HCC-2998 colon = tested on: HCC-2998 colon
MDA-MB-231 breast = tested on: MDA-MB-231 breast

COc1cc(Nc2cnc3cc(F)c(F)cc3n2)cc(OC)c1OC
TGI (M14 melanoma): > 100 µM
TGI (MDA-N): > 100 µM
TGI (SK-MEL-28 melanoma): > 100 µM
TGI (MCF7 breast): > 100 µM
TGI (ACHN renal): > 100 µM
TGI (IGROV1 ovarian): > 100 µM
TGI (SF-268 CNS): > 100 µM
TGI (OVCAR-4 ovarian): > 100 µM
TGI (MALME-3M melanoma): > 100 µM
TGI (EKVX NSCLC): > 100 µM
TGI (NCI-H522 lung): > 100 µM
TGI (SF-295 CNS): > 100 µM
TGI (SNB-19 CNS): > 100 µM
TGI (NCI-H226 lung): > 100 µM
TGI (HCT-116 colon): > 100 µM
TGI (PC-3 prostate): > 100 µM
TGI (HS 578T breast): > 100 µM
TGI (NCI-H23 lung): > 100 µM
TGI (CAKI-1 renal): > 100 µM
TGI (HL-60(TB) leukemia): > 100 µM
TGI (NCI/ADR-RES ovarian): > 100 µM
TGI (HOP-92 NSCLC): > 100 µM
TGI (SN12C renal): > 100 µM
TGI (TK-10 renal): > 100 µM
TGI (DU-145 prostate): > 100 µM
TGI (HOP-62 NSCLC): > 100 µM
TGI (A549 NSCLC): > 100 µM
TGI (BT-549 breast): > 100 µM
TGI (SF-539 CNS): > 100 µM
TGI (OVCAR-8 ovarian): > 100 µM
TGI (COLO 205 colon): > 100 µM
TGI (HT29 colon): > 100 µM
TGI (UACC-257 melanoma): > 100 µM
TGI (SK-MEL-5 melanoma): > 100 µM
TGI (SW-620 colon): > 100 µM
TGI (MOLT-4 leukemia): > 100 µM
TGI (SNB-75 CNS): > 100 µM
TGI (OVCAR-3 ovarian): > 100 µM
TGI (786-0 renal): > 100 µM
TGI (UO-31 renal): > 100 µM
TGI (A498 renal): > 100 µM
TGI (OVCAR-5 ovarian): > 100 µM
TGI (KM12 colon): > 100 µM
TGI (LOX IMVI melanoma): > 100 µM
TGI (SK-OV-3 ovarian): > 100 µM
TGI (SK-MEL-2 melanoma): > 100 µM
TGI (U251 CNS): > 100 µM
TGI (HCT-15 colon): > 100 µM
TGI (MDA-MB-435): > 100 µM
TGI (CCRF-CEM leukemia): > 100 µM
TGI (RXF 393 renal): > 100 µM
TGI (NCI-H460 lung): > 100 µM
TGI (UACC-62 melanoma): > 100 µM
TGI (T-47D breast): > 100 µM

CC(=O)Nc1cc(C(=O)Nc2cc(C(=O)N3CC(CCl)c4c3cc(N)c3ccccc43)nn2C)nn1C (stereo not drawn)
TGI (M14 melanoma): 2.07 µM
TGI (MDA-N): 0.389 µM
TGI (SK-MEL-28 melanoma): 0.154 µM
TGI (MCF7 breast): > 66.5 µM
TGI (ACHN renal): 0.0892 µM
TGI (IGROV1 ovarian): 0.851 µM
TGI (SF-268 CNS): 0.128 µM
TGI (OVCAR-4 ovarian): 0.677 µM
TGI (MALME-3M melanoma): 0.267 µM
TGI (EKVX NSCLC): 1.15 µM
TGI (NCI-H522 lung): 0.0181 µM
TGI (K-562 leukemia): 0.823 µM
TGI (SF-295 CNS): 4.41 µM
TGI (RPMI-8226 leukemia): 1.41 µM
TGI (SNB-19 CNS): 3.14 µM
TGI (HCT-116 colon): 0.412 µM
TGI (HS 578T breast): 1.55 µM
TGI (NCI-H23 lung): 0.0678 µM
TGI (HCC-2998 colon): 0.491 µM
TGI (CAKI-1 renal): 0.525 µM
TGI (HL-60(TB) leukemia): < 0.0344 µM
TGI (NCI/ADR-RES ovarian): 7.49 µM
TGI (HOP-92 NSCLC): 0.1 µM
TGI (SN12C renal): 0.0102 µM
TGI (TK-10 renal): > 100 µM
TGI (DU-145 prostate): 0.018 µM
TGI (HOP-62 NSCLC): > 100 µM
TGI (A549 NSCLC): 2.85 µM
TGI (BT-549 breast): 0.883 µM
TGI (SF-539 CNS): 0.0549 µM
TGI (OVCAR-8 ovarian): 0.308 µM
TGI (HT29 colon): 1.21 µM
TGI (UACC-257 melanoma): 2.09 µM
TGI (SK-MEL-5 melanoma): 1.23 µM
TGI (MOLT-4 leukemia): 0.0687 µM
TGI (SNB-75 CNS): 0.0775 µM
TGI (OVCAR-3 ovarian): 2.61 µM
TGI (786-0 renal): 0.332 µM
TGI (UO-31 renal): 1.35 µM
TGI (A498 renal): < 0.0197 µM
TGI (OVCAR-5 ovarian): 17.3 µM
TGI (KM12 colon): 7.83 µM
TGI (LOX IMVI melanoma): 1.07 µM
TGI (SK-OV-3 ovarian): 5.96 µM
TGI (SK-MEL-2 melanoma): 0.427 µM
TGI (MDA-MB-231 breast): 0.76 µM
TGI (U251 CNS): 0.856 µM
TGI (HCT-15 colon): 3.22 µM
TGI (MDA-MB-435): 0.281 µM
TGI (CCRF-CEM leukemia): 0.0491 µM
TGI (RXF 393 renal): 0.226 µM
TGI (NCI-H460 lung): 0.13 µM
TGI (UACC-62 melanoma): 0.0631 µM
TGI (T-47D breast): 0.0931 µM
